Assays:
HGFA [1] = target: T1, HGFA (Homo sapiens, UniProt Q04756); assay: HGFA competition assay of inhibitor and substrate; type: biochemical; conditions: 0, 0.25, 0.5, 1.0 μM inhibitor; Pefachrome
T1 construct: His6 tag (N); seven amino acid spacer and seven amino acid TEV cleavage site (N); Honey Bee melittin signal peptide (N); made in house; host or cells: High 5 insect cells (baculovirus; virus raised in Sf9)
T1 sequence (Q04756 373-655): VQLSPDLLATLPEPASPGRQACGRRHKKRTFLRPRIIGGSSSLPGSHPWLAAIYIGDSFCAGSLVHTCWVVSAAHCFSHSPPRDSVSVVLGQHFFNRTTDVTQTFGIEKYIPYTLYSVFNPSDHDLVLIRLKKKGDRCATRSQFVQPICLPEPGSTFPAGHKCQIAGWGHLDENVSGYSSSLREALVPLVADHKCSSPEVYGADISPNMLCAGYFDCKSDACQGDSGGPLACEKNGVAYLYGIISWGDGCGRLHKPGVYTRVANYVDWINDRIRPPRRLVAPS
Method: From the plots of the mean reaction velocity versus substrate concentration and the Michaelis-Menten enzyme kinetics equation within GraphPad Prism version 6.04 for Windows, the reaction Vmax and subsequent Km for each concentration of inhibitor was determined as shown in the FIG. 1.

HGFA [2] = target: T1, HGFA; assay: Biochemical assay for proteolysis of pro-MSP by HGFA; conditions: immunoblot; inhibitors 0-12.5 μM
Method: (§1) In order to determine efficiency of our recombinant HGFA we performed a concentration response of HGFA using a fixed concentration of pro-HGF and pro-MSP.
(§2) After 30 minutes incubation at room temperature (25° C.), 25 ng of pro-HGF (R&D Systems, NKG011306A) was added. […] Proteins were transferred to Millipore Immobilon-P membranes (Billerica, Mass.) and then immunoblotted at 4° C. with anti-HGF antibody (R&D Systems, AF-294-NA) and HRP conjugated donkey anti-goat IgG (Santa Cruz, SC-2020) diluted 1:500 and 1:5000 in 5% milk/TBST (5% Carnation nonfat dried milk/10 mM Tris, 150 mM NaCl, 0.05% TWEEN 20, pH 8.0), respectively. Membranes were washed in TBST, immersed in Millipore Luminata Crescendo Westem-HRP Substrate for 5 minutes, and then exposures made on a BioRad ChemiDoc MP Imaging System (Hercules, Calif.). For pro-MSP proteolysis assays, the procedures were similar, except that the HGFA concentration was 75 nM, pro-MSP (R&D Systems ZN081306A) concentration was 50 ng per reaction, and 1:500 dilution of anti-MSP antibody (R&D Systems, AF352) was used for MSP detection during immunoblotting.

HGFA [3] = target: T1, HGFA; assay: Biochemical assay for proteolysis of pro-HGF by HGFA; conditions: immunoblot; inhibitors 0-12.5 μM; 1 nM HGFA
Method: as §1, §2

HGFA [4] = target: T1, HGFA; assay: Dilution recovery experiments with HGFA; type: biochemical; conditions: rapid 1:350 dilution; Boc-QLR-AMC 250 μM
Method: After incubating for 20 minutes at room temperature, these reactions were diluted rapidly (1:350) in TNC buffer containing 250 μM Boc-QLR-AMC substrate (˜7 times Kin). Activity was monitored by recording the change in fluorescence (excitation at 380 nm and emission at 460 nn) over time in a Biotek Synergy 2 plate reader. GraphPad Prism was used to plot the change in fluorescence over time.

[5] = system: c-MET phosphorylation in MDA-MB-231 cells; assay: c-MET phosphorylation (Y1234/1235) in MDA-MB-231 cells treated with HGFA processed pro-HGF; type: cell-based, human; conditions: pro-HGF/HGFA reactions, read-out: EC50, inhibition of c-MET phosphorylation
Description: To show the inhibition provided by the tetrapeptide compounds would have effects on cell signaling through c-MET kinase, a phosphorylation assay using the invasive breast cancer cell line, MDA-MB-231 was developed. This cell line has high expression of c-MET and pro-HGFA but not pro-HGF.
MDA-MB-231 cells were maintained in RPMI medium (Sigma-Aldrich R8758, St. Louis, Mo.) containing 10% fetal bovine serum (Sigma F2442) and 1× Penicillin/Streptomycin (Pen/Strep) antibiotics (Thermo Fisher SV30010). […] After 18 hours, cells were switched to fresh starve media and then treated with HGFA Proteolysis reactions containing 1 nM HGFA, 50 ng pro-HGF and various amounts of inhibitors. […] Lysate aliquots were mixed with reducing SDS gel loading buffer and run on 10% PAGE.
Immunoblots were performed as described previously, except primary antibodies, anti-phospho cMet (Cell Signaling, CS3077) and anti-total cMet (Cell Signaling, CS3127) were used and diluted in 5% BSA/TBST. Secondary antibodies, HRP-anti rabbit antibody (CS7074) and HRP-anti mouse (CS7076) were used, respectively. All antibodies were used at a 1:1000 dilution. Images were obtained and quantitated using BioRad ChemiDoc MP Imaging System. cMet phosphorylation signals were normalized using the total cMet signals and % inhibition calculated using the ratio of inhibited versus uninhibited HGFA Proteolytic reactions. […]

[6] = system: RON phosphorylation in T47D cells; assay: RON phosphorylation sandwich ELISA in T47D cells; type: cell-based; conditions: HGFA-mediated pro-MSP stimulation
Method: Detection and quantification of pRON in T47D cells was performed using a sandwich ELISA assay. RON capture antibody (R&D Systems, AF691) was immobilized on high protein binding 96-well plates. Next, cell lysates are added to wells, followed by incubation with an anti-phosphotyrosine-HRP antibody and then addition of a TMB substrate. Optical density of wells was determined by reading plates at 450 nm in a plate reader.

| SMILES | mode of inhibition versus substrate (HGFA [1]) | inhibition of pro-MSP proteolysis by HGFA (HGFA [2]) | inhibition of pro-HGF activation by HGFA (HGFA [3]) | reversibility of HGFA inhibition (HGFA [4]) | EC50 [5] [nM] | RON phosphorylation (pRON) [6] |
| --- | --- | --- | --- | --- | --- | --- |
| CC(=O)N[C@@H](CCCCN)C(=O)N[C@@H](CCC(N)=O)C(=O)N[C@@H](CC(C)C)C(=O)N[C@@H](CCCNC(=N)N)C(=O)c1nccs1 [Compound 5, Ac-KQLR(SEQ ID NO: 1)-kt] | competitive | dose-dependent inhibition | dose-dependent inhibition | reversible inhibitor |  |  |
| CC(=O)N[C@@H](CCCCN)C(=O)N[C@@H](CCCNC(=N)N)C(=O)N[C@@H](CC(C)C)C(=O)N[C@@H](CCCNC(=N)N)C(=O)c1nccs1 [Compound 5g, Ac-KRLR(SEQ ID NO: 8)-kt] |  | dose-dependent inhibition | dose-dependent inhibition |  | 180 |  |
| CC(=O)N[C@@H](Cc1c[nH]c2ccccc12)C(=O)N[C@@H](CCCNC(=N)N)C(=O)N[C@@H](CC(C)C)C(=O)N[C@@H](CCCNC(=N)N)C(=O)c1nccs1 [Compound 5h, Ac-WRLR(SEQ ID NO: 9)-kt] |  | dose-dependent inhibition | dose-dependent inhibition |  |  |  |
| CC(=O)N[C@@H](CO)C(=O)N[C@@H](CCCNC(=N)N)C(=O)N[C@@H](CC(C)C)C(=O)N[C@@H](CCCNC(=N)N)C(=O)c1nccs1 [Compound 6e, Ac-SRLR(SEQ ID NO: 15)-kt] |  | dose-dependent inhibition |  |  |  |  |
| N=C(N)c1ccc2cc(OC(=O)c3ccc(N=C(N)N)cc3)ccc2c1 [Nafamostat, reference compound] |  | dose-dependent inhibition | dose-dependent inhibition |  |  | reduces pRON to background levels |

Source: US11130780B2, “Inhibitors of growth factor activation enzymes” (Washington University, priority 2015, dated 2021)
